Test results reported in US8541607B2, “Disulfide, sulfide, sulfoxide, and sulfone derivatives of cyclic sugars and uses thereof” (Lacer, S.A., priority 2003, dated 2013).

How the values were obtained:
[1] = system: heparinized plasma (plasma lipoproteins); test: Inhibition of plasma oxidation induced by Cu2+ (absorbance 234 nm); type: biochemical; details: compounds at 10 μM; 50 μM CuSO4; mean ± s.e.m.
Experimental: The method used in the assays to determine the effect of compounds on the capacity of oxidation of the plasma is substantially the same as described in Spranger T. et al., Chem Phys Lipids 1998; 91: 39-52.
Lipoprotein oxidation induced in vitro in plasma is expected to represent a relevant model of the lipoprotein oxidation in the arterial wall. Oxidation of plasma lipoproteins was assessed as the capacity of oxidation of heparinized plasma and was measured by spectrophotometry as in increase in absorbance at 234 nm. The compounds were added in vitro to determine their inhibitory activity over the capacity of oxidation of plasma induced by Cu^2+ (CuSO4). Heparinized plasma was diluted with phosphate-buffered saline solution (PBS) containing 0.16 M NaCl, and the oxidation was started by 50 μM CuSO4. Experimental samples were incubated at 37° C. and the increase in absorbance at 234 nm was automatically recorded every 15 min for at least 12 h. The effect of compounds over the capacity of oxidation of plasma induced by Cu^2+ was tested at 7 different concentrations using heparinizaded plasma from 7 different healthy donors.

LDL = test: Inhibition of LDL oxidation induced by haemin and H2O2 (conjugated dienes, 234 nm); type: biochemical, human; details: compounds at 10 μM; 2.5 μM haemin and 5 μM H2O2; mean ± s.e.m.
Source text: The method used in the assays to determine the effect of the compounds on LDL oxidation is substantially the same as described in the following references: • Sprenger T., et al., Chem. Phys. Lipids 1998; 91:39-52 • Lynch S. M., et al., Biochim. Biophys. Acta 2000; 1485:11-22 • Pedreño J., et al., Thromb. Res. 2000; 99: 51-60.
The method used in the assays to isolate LDL particles from fresh human plasma is substantially the same as described in Pedreño J., et al., Atherosclerosis 2001; 155: 99-112.
Oxidative modification of low-density lipoprotein (LDL) is currently believed to be a central event it the development of atherosclerotic cardiovascular disease. The exposition of LDL to globin-free haemin (the complex of ferric ion (Fe^3+) with protoporphyrin IX), derived from the haemoglobin in circulating erythrocytes, serves as a physiological source of pro-oxidant Fe^3+ capable to promoting LDL oxidation. The compounds were added in vitro to determine their inhibitory activity on LDL oxidation induced by haemin and H2O2. LDL at a final protein concentration of 0.2 mg/ml was incubated in the presence of 2.5 μM haemin and 5 μM H202. Oxidative modification of LDL particles was assessed by measurement of conjugated dienes. Experimental samples were incubated at 37° C. and the increase in absorbance at 234 nm was automatically recorded every 5 min for at least 5 h. The effect of compounds on the LDL oxidation induced by haemin was tested at 7 different concentrations using LDL preparations from 7 different healthy donors.

[2] = system: Rats, left carotid artery thrombosis (FeCl3); test: In vivo antithrombotic effect, FeCl3 carotid artery thrombosis; set-up: species or system rat; details: single oral dose of 100 mg/Kg; no occlusion during 60 min after FeCl3 patch
Experimental: The method used is substantially the same as described by Kurz (Kurz K. D., et al., Thromb. Res. 1990, 60:269-280) and modified by Feuerstein (Feuerstein G. Z., et al., Artherioscler. Thromb. Vase. Biol. 1999, 19: 2554-25562).
Rats received a single oral dose of 100 mg/Kg of the compounds.
Forty-five minutes after dosing rats were anaesthetized with sodium pentobarbital (40 mg/kg, i.p.) and they were placed later dorsally on a heated (37° C.) surgical board.
The left carotid artery was isolated and a Parafilm 4 sheet (7×20 mm, American National Can) was placed under it. An electromagnetic sounding of flow (Transonic Systems Inc.) was placed on the artery to measure blood flow.
Sixty minutes after product administration, a paper patch saturated with FeCl3 solution (70%) was placed (and not removed for the whole duration of the experiment) on the left carotid artery downstream from the sounding of flow to initiate thrombosis. The blood flow was controlled during the 60 min later to the application of the patch in the artery.
The vessel was considered totally occluded by the thrombus formed when no blood flow was detected (0.0 ml/min). In this model, thrombus formation usually takes place within 15 to 20 minutes in non-treated animals.

[3] = system: human microvascular endothelial cells (HMEC-1); test: Inhibition of LDL-Dil transcytosis through HMEC-1; type: cell-based; details: 2 h, mean ± s.e.m.; for Inhibition of LDL transcytosis, % of inhibition to control, Stimulated cells: HMEC-1 activated with 100 μM histamine; for Inhibition of LDL transcytosis, % of inhibition to control, Resting cells: non activated HMEC-1
Source text: The method used in the assays to determine the effect of the compounds on LDL transcytosis in human microvascular endothelial cells is substantially the same as described in Colomé C. et al; Atherosclerosis 2000; 149: 295-302. This test allows a prediction on the anti-atherosclerotic potential of the compounds, since the accumulation of LDL in the vascular wall as a consequence of a vascular endothelial cell active transport is one of the first steps in the development of atherosclerosis.
The method used in the assays to isolate LDL particles from fresh human plasma and the labelling with Di1 is substantially the same as described in Pedreño J. et al., Atherosclerosis 2001; 155: 99-112, and Stephan Z. F. and Yuracheck E. C. J. Lipid Res. 1993; 34:325-330
Activated (100 μM histamine) and non activated HMEC-1 were cultivated in the upper well of inserted of coculture until to reach confluence (Falcon HTS FluorBloK). Then, LPL-Dil (up to 200 μg/ml) was added and cells were incubated for 2 h in the presence and absence of compounds. After these two hours, transcytosis of LDL-Dil particles through endothelial cells was assessed by determination of the presence of fluorescence in the lower well of insert of coculture. Results are expressed as percentage of inhibition respect to control in the absence of compounds).

HUVEC cells = test: In vitro protection against cytotoxicity induced by oxygen radicals (peroxynitrite), XTT method; type: cell-based, human; details: HUVEC pre-treated with 50 μM compound for one hour, then 800 μM peroxynitrite overnight
Source text: The method used is substantially the same as described by Caveda L., et al. (J. Clin. Invest. […]; 98: 886-893).
For the determination of the capacity to inhibit the cytotoxicity induced by oxygen radicals Human Umbilical Vein Endothelial Cells (HUVEC) were used. HUVEC were isolated and cultured in M199 and 20% FCS (Fetal Calf Serum).
Test XTT assay is based on […] by the metabolically active cells of the salt of tetrazolio XTT to form an orange product, the formazan dye formed is soluble and is directly quantified using an spectrophotometer.
HUVEC cells were cultivated until a sub-confluence status in a 96 well tissue culture plate and pre-treated with 50 μM of the compound for one hour. After that, cells were treated with 800 μM of peroxynitrite for an overnight.
After overnight incubation cells were incubated with the yellow XTT solution (final concentration 0.3 mg/ml) for 4 hours. After this incubation period, orange formazan solution was formed, which was spectrophotometrically quantified using an ELISA plate reader at 450 nm
The results are shown in table 15 and are expressed as percentage of death cells.

SMILES	% of increment of lag phase with respect to control (plasma oxidation) [1] [%]	% of increment of lag phase with respect to control (LDL oxidation) (LDL) [%]	% of animals fully protected [2] [%]	Inhibition of LDL transcytosis, % of inhibition to control, Stimulated cells [3] [%]	Inhibition of LDL transcytosis, % of inhibition to control, Resting cells [3] [%]	% of death cells (HUVEC cells) [%]
O=[N+]([O-])O[C@@H]1CO[C@H]2[C@@H]1OC[C@@H]2S [(1), 2-thioisosorbide 5-mononitrate]	245 ± 26	290 ± 8	100	122 ± 8	58 ± 15	80
CC(=O)S[C@H]1CO[C@H]2[C@@H]1OC[C@H]2O[N+](=O)[O-] [(12), 2-acetylthio-isosorbide-5-mononitrate]	200 ± 10	117 ± 56	71	80 ± 12	51 ± 19	50
